In patent US20040266862A1, “Method of improving animal tissue quality by supplementing the animal diet with mixed tocotrienols” (priority 2003, published 2004):
Marks after values point to notes of the source that are not given here.

Columns and labels:
swine [1] = assay: 2000-2001 swine feed test: 24 hour raw pork loin pH; type: in vivo; details: for 24 hour raw pork loin pH, Increase vs. Control: overall ave.
Source text: (§1) Applicants assessed the effects of antioxidant supplementation on meat quality in an experiment in which pork from pigs fed one of four dietary treatments was compared across three genetic lines differing in carcass leanness and intramuscular fat content. Ninety-six pigs were used in the test, thirty-two in each of the three genetic lines. Swine feeding was initiated in September 2000. At about 80 pounds body weight the 32 pigs of each of the three genetic lines were randomly allotted to individual pens. The pigs were fed corn/soy based diets formulated to provide adequate levels of all nutrients. In addition, one of four dietary treatments was assigned to each pen: control, 1,000 ppm NAC, 500 ppm LA and 150 ppm MT.
(§2) The pigs were harvested in November and December 2000 when they had reached an average weight of 260 pounds. Meat tissue quality evaluations occurred on Jan. 28, 2001. At the packing plant individual hot carcass weight, back fat depth and loin depth were measured and lean percent was calculated. Loin pH and loin color value (Minolta L*) were recorded 24 hours post mortem.

swine [2] = assay: 2000-2001 swine feed test: raw pork loin color (Minolta L*); type: in vivo
Source text: as §1, §2
Minolta L* color value was measured objectively using a Minolta colorimeter. The Minolta L* value is an indication of the lightness of the pork loin. A lower value indicates a darker color and thus, higher quality.

swine [3] = details: administered to swine; Berg, NPPC Project No. 99-164; cited from earlier work
[4] = in vitro; compared with ATA; Kamat et al. 1997; cited from earlier work

Compound: O=C(O)CCCCC1CCSS1 (stereo not drawn) [LA, alpha-lipoic acid]
- 24 hour raw pork loin pH (swine [1]; Line 1 ave., 500 ppm in diet): 6.00^b
- 24 hour raw pork loin pH (swine [1]; Line 2 ave., 500 ppm in diet): 5.90^b
- 24 hour raw pork loin pH (swine [1]; Line 3 ave., 500 ppm in diet): 5.99^c
- 24 hour raw pork loin pH (swine [1]; Overall ave. of three genetic lines, 500 ppm in diet): 5.99^b
- 24 hour raw pork loin pH, Increase vs. Control (swine [1]; 500 ppm in diet): 0.20
- raw pork loin color, Minolta L* value (swine [2]; Line 1 ave., 500 ppm in diet): 52.0
- raw pork loin color, Minolta L* value (swine [2]; Line 2 ave., 500 ppm in diet): 50.9
- raw pork loin color, Minolta L* value (swine [2]; Line 3 ave., 500 ppm in diet): 49.1
- raw pork loin color, Minolta L* value (swine [2]; overall ave., 500 ppm in diet): 50.7
- Color Score (swine [3]): decrease
- Loin pH (swine [3]): increase

Compound: alpha-tocotrienol
- antioxidant activity [4]: greater antioxidant activity than ATA

Compound: CC(=O)N[C@@H](CS)C(=O)O [NAC, N-acetylcysteine]
- 24 hour raw pork loin pH (swine [1]; Line 1 ave., 1,000 ppm in diet): 6.07^b
- 24 hour raw pork loin pH (swine [1]; Line 2 ave., 1,000 ppm in diet): 5.78^a
- 24 hour raw pork loin pH (swine [1]; Line 3 ave., 1,000 ppm in diet): 5.93^c
- 24 hour raw pork loin pH (swine [1]; Overall ave. of three genetic lines, 1,000 ppm in diet): 5.93^b
- 24 hour raw pork loin pH, Increase vs. Control (swine [1]; 1,000 ppm in diet): 0.16
- raw pork loin color, Minolta L* value (swine [2]; Line 1 ave., 1,000 ppm in diet): 49.7
- raw pork loin color, Minolta L* value (swine [2]; Line 2 ave., 1,000 ppm in diet): 53.0
- raw pork loin color, Minolta L* value (swine [2]; Line 3 ave., 1,000 ppm in diet): 49.0
- raw pork loin color, Minolta L* value (swine [2]; overall ave., 1,000 ppm in diet): 50.5

Compound: CC(C)=CCC/C(C)=C/CC/C(C)=C/CC[C@]1(C)CCc2cc(O)c(C)c(C)c2O1 [gamma-tocotrienol]
- antioxidant activity [4]: greater antioxidant activity than ATA
